{
  "source": "patent US10301292B2",
  "about": "“Bicyclic compound” (Takeda Pharmaceutical Company Limited, priority 2014, dated 2019)",
  "key": {"human ACC1": {"target": "T1, human ACC1 (Homo sapiens, UniProt Q13085)", "T1 construct": "His tag (from vector pFAST-BacHTc; protein captured on Ni-NTA) (N); made in house; host or cells: SF-9 insect cells, recombinant baculovirus BAC-ACC1", "test": "Measurement of ACC1 inhibitory activity (Malonyl-CoA production, RapidFire-mass spectrometry)", "format": "biochemical", "conditions": "10 μM of the test compound; recombinant human ACC1; read-out: ACC1 inhibitory rate (%) at 10 μM", "summary_of_the_method": "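Sf9-expressed His-tagged human ACC1, diluted to 0.2 μg/ml in HEPES pH 7.5/MgCl2/citrate/DTT/0.001% BSA, was preincubated 60 min at RT with compound. Reaction started with substrate solution (50 mM KHCO3, 200 μM ATP, 200 μM acetyl-CoA), ran 30 min at RT, then was formic acid-quenched. Malonyl-CoA was quantified by RapidFire-MS against malonyl-13C3-CoA.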"}, "HCT116 cells": {"system": "HCT116 cells", "test": "Growth inhibitory activity on HCT116 cell (CellTiter-Glo)", "format": "cell-based", "conditions": "Homo sapiens, HCT-116, 72 h, table head: 10 μM (text b2498: 1 μM), 3 days incubation, read-out: HCT116 cell proliferation inhibitory rate (%) at 10 μM", "summary_of_the_method": "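HCT116 cells in RPMI with 2% FBS, 900 cells/well, treated the day after seeding and incubated 3 days at 37 °C, 5% CO2. Viability read by CellTiter-Glo luminescence. Percent inhibition calculated relative to untreated wells, with cell-free wells subtracted as background.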"}},
  "data": [
    {"compound": "CC(NC(N)=O)c1ccc2nc(-c3ccc(Oc4cccc(OCC5CC5)c4)nc3)oc2c1", "note": "(centres unmarked) [Example 98, 1-(1-(2-(6-(3-(cyclopropylmethoxy)phenoxy)pyridin-3-yl)-1,3-benzoxazol-6-yl)ethyl)urea]", "values": [
      {"measurement": "inhibition at 10 µM", "setting": "human ACC1", "result": 98, "unit": "%"},
      {"measurement": "inhibition at 10 µM", "setting": "HCT116 cells", "result": 25, "unit": "%"}
    ]}
  ]
}
